Source: article PMC2984425, “Safety and pharmacokinetics of novel selective vascular endothelial growth factor receptor-2 inhibitor YN968D1 in patients with advanced malignancies” (BMC Cancer, 2010)

Tested on: advanced solid tumors
Assay: Tumor response by RECIST
Format: in vivo, human
Experimental: Patients with measurable disease at baseline were evaluated for tumor response according to the Response Evaluation Criteria for Solid Tumors (RECIST). Radiographic studies (CT scan or MRI) for disease assessment were conducted at baseline and every 2 cycles (8 weeks) thereafter. The best overall response was reported. Disease control rate was defined as the percentage of patients with complete response (CR), partial response (PR), and stable disease (SD) for at least 8 weeks. The duration of overall response was defined as the period from the initial measurement of complete response (CR) or partial response (PR), whichever occurred first, to the first date of documented disease recurrence or progression. The same method and techniques of assessment were used to characterize each identified and reported lesion at baseline and at subsequent evaluations.

N#CC1(c2ccc(NC(=O)c3cccnc3NCc3ccncc3)cc2)CCCC1 [apatinib]
CR, evaluable patients (250 mg cohort): 0
Disease control (%) CR+PR+SD (250 mg cohort): 66.7%
Disease control CR+PR+SD, patients (250 mg cohort): 2
PD, evaluable patients (250 mg cohort): 1
PR, evaluable patients (250 mg cohort): 1
CR, evaluable patients (500 mg cohort): 0
Disease control (%) CR+PR+SD (500 mg cohort): 66.7%
Disease control CR+PR+SD, patients (500 mg cohort): 6
PD, evaluable patients (500 mg cohort): 3
PR, evaluable patients (500 mg cohort): 2
CR, evaluable patients (750 mg cohort): 0
Disease control (%) CR+PR+SD (750 mg cohort): 100%
Disease control CR+PR+SD, patients (750 mg cohort): 11
PD, evaluable patients (750 mg cohort): 0
PR, evaluable patients (750 mg cohort): 2
CR, evaluable patients (850 mg cohort): 0
Disease control (%) CR+PR+SD (850 mg cohort): 90.9%
Disease control CR+PR+SD, patients (850 mg cohort): 10
PD, evaluable patients (850 mg cohort): 1
PR, evaluable patients (850 mg cohort): 2
CR, evaluable patients (1000 mg cohort): 0
Disease control (%) CR+PR+SD (1000 mg cohort): 66.7%
Disease control CR+PR+SD, patients (1000 mg cohort): 2
PD, evaluable patients (1000 mg cohort): 1
PR, evaluable patients (1000 mg cohort): 0
patients who achieved PR (22 assessable patients with gastric and colorectal cancer): 4
Disease control rate (22 assessable patients with gastric and colorectal cancer (n = 18)): 81%
CR, evaluable patients (Total, n = 37): 0
Disease control CR+PR+SD, patients (Total, n = 37): 31
PD, evaluable patients (Total, n = 37): 6
Disease control (%) CR+PR+SD, disease control rate (Total, n = 37, at 8 weeks): 83.8%
Duration of PR (one GIST patient who failed imatinib): 24 months
PR, % of evaluable patients (thirty-seven evaluable patients): 18.9%
